Measurements: PMC10350920, “Development of a 2,4-Diaminothiazole Series for the Treatment of Human African Trypanosomiasis Highlights the Importance of Static–Cidal Screening of Analogues” (Journal of Medicinal Chemistry, 2023)
Like-named read-outs stand apart in the source and are kept apart here.

What was measured:
[1] = Mammalian cell counter screen (MRC-5); type: cell-based, human; details: human, MRC-5 fibroblasts; mean values; number of replicates in parentheses
Experimental: Drug sensitivity assays with BSF T. b. brucei “single marker” S427 and human MRC-5 fibroblasts were conducted as previously described.[43]

[2] = Human microsomal intrinsic clearance; type: in vitro ADME; details: second value of mouse/human cell
[3] = test system: BSF trypanosomes; assay: Static–cidal assay; type: cell-based, T. brucei; details: lower concentrations cytostatic
From the text: To complement our established T. brucei cell-based screen, in the course of these studies, we developed an assay that allows discrimination of compounds that are cytostatic from those that are cytocidal.[15] In this assay, static and cidal compounds are categorized by analysis of growth curves, with cidal compounds causing a decrease in parasite numbers. Commonly, phenotypic screens with T. brucei are end-point assays with live-cell indicators used as the final readout. In our […] assay, bloodstream trypanosomes are grown in the presence of test compounds for 3 days with a starting cell density well below the assay limit of detection, thus making it impossible to distinguish cidal from static compounds. To assess if compounds within this diaminothiazole series kill trypanosomes or merely stop parasite growth, we profiled a panel of compounds in our static–cidal assay. […] Similarly in rats, the concentration would be below the level for cidal activity.
An assay to assess initial indications of the cidal nature of the compound series was conducted as previously reported.[15] […] After 4 h, the time = 0 plate was read using a PerkinElmer Victor 3 plate reader (excitation 528 nm; emission 590 nm). […]

[4] = test system: Tb927.8.6290 overexpressing cell lines (A258P); assay: Drug sensitivity, line overexpressing Tb927.8.6290 A258P; type: cell-based, T. b. brucei; details: for EC50: Trypanosoma brucei
Experimental: Drug sensitivity assays were carried out with BSF T. b. brucei “single marker” S427 or BSF T. b. brucei, Lister 427, MiTat 1.2, clone 221a 2T1 cells,[45] cells grown at 37 °C with 5% CO2 in an HMI-9T medium[46] as previously described.[47] 2T1 cells were initially maintained with 1 μg mL^–1 puromycin and 1 μg mL^–1 phleomycin prior to transfection or 2.5 μg mL^–1 hygromycin and 1 μg mL^–1 phleomycin after transfection. Induction of overexpression was achieved by the addition of 1 μg mL^–1 tetracycline to the culture medium.
The following primers were used to PCR amplify Tb927.8.6290 from genomic DNA isolated from wild-type and 38-resistant trypanosomes 5′-[…]-3′ (PacI site in bold) and 5′-[…]-3′ (BamHI site in bold). The PCR products (1272 bp) were then cloned into the pRPa plasmid.[53] The accuracy of the plasmid constructs was confirmed by in-house Sanger sequencing and then linearized with AscI prior to transfection. The linearized plasmids were introduced into 2T1 T. b. brucei cells following removal of puromycin from the media and selected with 2.5 μg mL^–1 hygromycin and 1 μg mL^–1 phleomycin. Two independent clones were selected for further studies.

[5] = Equilibrium dialysis, free fraction in plasma; type: in vitro ADME, mouse; details: matrix not given
Experimental: In brief, a 96-well equilibrium dialysis apparatus was used to determine the free fraction in plasma and the brain (HT Dialysis LLC, Gales Ferry, CT). Isotonic buffer was prepared using 8.69 g of Na2HPO4, 1.9 g of KH2PO4, and 4.11 g of NaCl dissolved in 1 L of Milli-Q water, and the pH was adjusted to 7.4. Artificial CSF was prepared using 3.652 g of NaCl, 93.2 mg of KCl, 119.96 mg of MgCl2, 92.61 mg of CaCl2, and 268 mg of Na2HPO4 heptahydrate dissolved in 0.5 L of water, and the pH was adjusted to 7.4. Membranes [12–14 (plasma) or 6–9 (brain) kDA cutoff] were conditioned in deionized water for 60 min, followed by conditioning in 80:20 deionized water/ethanol for 20 min, and then rinsed in isotonic buffer (plasma) or […] (brain) before use. Female CD1 mouse plasma was defrosted and centrifuged for 10 min at 3000 rpm (Allegra X12-R, Beckman Coulter, USA). The control mouse brain was homogenized in two volumes of artificial CSF in a Covaris S2 acoustic homogenizer. Plasma or brain homogenate was spiked with the test compound (10 μg mL^–1), and 150 μL aliquots (n = 3 replicate determinations) were loaded into the 96-well equilibrium dialysis plate. Dialysis versus 150 μL of isotonic buffer (plasma) or artificial CSF (brain) was carried out for 5 h in a temperature-controlled incubator at 37 °C (Barworld Scientific Ltd, UK) using an orbital microplate shaker at 125 rpm (Barworld Scientific Ltd, UK). At the end of the incubation period, aliquots of plasma/homogenized brain or buffer were transferred to a clean 96-well plate, and the composition in each well was balanced with control fluid, such that the volume of buffer to the matrix was the same. Sample extraction was performed by the addition of 400 μL of acetonitrile containing an appropriate internal standard. Samples were allowed to mix for 1 min and then centrifuged at 3000 rpm in 96-well blocks for 10 min (Allegra X12-R, Beckman Coulter, USA). All samples were analyzed by means of UPLC/MS/MS on a Quattro Premier XE or Micro TQs mass spectrometer (Waters Corporation, USA). The unbound fraction was determined as the ratio of the peak area in the buffer to that in the matrix.

[6] = mouse, in vivo, ip
[7] = Pharmacokinetics in HRN mice; details: IP, 10 mg kg^–1

Row | Compound | EC50 [1] [µM] | CLint (human) [2] [mL·min/g] | concentration that is cidal (reduction in parasite number) [3] | EC50 ([4]; read-out: EC50, A258P +TET) [µM] | EC50 ([4]; read-out: EC50, A258P –TET) [µM] | fold shift, A258P ([4]; −TET vs +TET EC50, in brackets) | Fu (free fraction) [5] | exposure in HRN mice relative to NMRI mice [6] [fold] | AUC [7] | Tmax [7] [min]
1 | CC(C)(O)CC(=O)c1sc(Nc2ccc(F)c(F)c2)nc1N [Compound 38, 1-(4-Amino-2-((3,4-difluorophenyl)amino)thiazol-5-yl)-3-hydroxy-3-methylbutan-1-one] | 46 | < 0.5 | 50 µM | 12 ± 0.25 | 0.31 ± 0.009 | 40 | – | – | – | –
2 | (4-Amino-2-(cyclohexylamino)thiazol-5-yl)(2,6-difluorophenyl)methanone [Compound 16] | – | – | above 5.6 μM | – | – | – | 0.03 | 15 | 1,000,000 ng mL h^–1 | 30
